In brackets after ≈: the same amount, converted by molar mass. Positions of bridges follow the written chain, without caps; N, C: chain ends. Non-standard residues stand in square brackets, D forms with d. Residues, ends and D or L forms follow the SMILES beside them. *: point of attachment. Octanoyl(7-Me) = CC(C)CCCCCC(=O)*; dOrn = NCCC[C@@H](N)C(=O)O; Orn = NCCC[C@H](N)C(=O)O; Dap = NC[C@H](N)C(=O)O
Legend:
[1] = tested on: Escherichia coli ATCC 25922; assay type: cell-based; settings: in vitro activity quoted in the in vivo section
Summary of the method: (§1)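 Broth microdilution in MHB per CLSI; inoculum 2×10^5 CFU mL^−1 from log-phase TSB cultures at OD600 0.5. Plates incubated 16 hours at 37° C with shaking at 220 rpm. MIC is the lowest concentration preventing visible growth.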

E. coli ATCC 25922 = test: Mouse thigh abscess (neutropenic thigh infection) efficacy model; assay type: in vivo, mice (ICR, CD1)
Description: Efficacy study: The in vivo efficacy of compound 6 was assessed in a mouse thigh abscess model where both thighs of each mouse were infected with E. coli ATCC 25922 Immunosuppression: Mice were rendered neutropenic with subcutaneous injections of cyclophosphamide at 150 mg/kg 4 days before infection and 100 mg/kg 1 day before infection. The immunosuppression regime leads to neutropenia starting 24 h post administration of the first injection, which continues throughout the study.
Infection: The bacterial strain used was E. coli ATCC 25922. An aliquot of a previously prepared frozen stock of the strain was thawed and diluted in sterile PBS to the desired inoculum just prior to infection. […]
Endpoints: 1 h and 20.5 (planned 25) h post-infection, the clinical condition of all animals was assessed prior to humane euthanasia using pentobarbitone overdose, and the thighs were removed and weighed. Thigh samples were homogenized in 3 mL ice cold sterile PBS; the homogenates were quantitatively cultured onto CLED agar and incubated at 37° C. for 18-24 h before colonies were counted.
Data analysis: The data from the culture burdens were analysed using appropriate non-parametric statistical models (Kruskal-Wallis using Conover-Inman to make all pairwise comparisons between groups) with StatsDirect software v. […]

[2] = In vivo tolerability study; set-up: species or system mice (ICR, CD1); settings: subcutaneous, 3 doses at 8-h intervals, up to 40 mg/kg (total daily dose 120 mg/kg), naive mice
Description: Animal Strain: Mice used in these studies were supplied by Charles River (Margate UK) and were specific pathogen free. The strain of mice used was ICR (also known as CD1 Mice) which is a well characterized outbred murine strain. Mice (male) were 11-15 g on receipt and were allowed to acclimatise for at least 7 days.
Test compounds: Compound 6 (i.e. laterocidamide) was dissolved in water for injection in which it formed a clear colourless solution. Polymyxin B was dissolved in saline for injection to produce a clear colourless solution.
Tolerability study: The tolerability of compound 6 was assessed in the same mouse strain used for the efficacy studies. […] The mice used in the tolerability study were naïve and were not immunosuppressed or infected.

A. baumannii MDR = assay type: cell-based, Acinetobacter baumannii; settings: A. baumannii MDR clinical isolate
Summary of the method: as §1

HepG2 cells = test: Cytotoxicity MTT assay; settings: HepG2, 128 μg/mL, 24 h
Description: In addition to a single vehicle control, compounds (diluted from DMSO stock) were added to each well to obtain in a final 128 μg/mL concentration (max. final DMSO concentration 0.5%) for all compounds except for oritavancin which was administered at 50 μM. Incubation was done for 24 h at 37° C., 7% CO2. After the incubation, MTT was added to each well at a final concentration of 0.40 mg/mL. The plates were then incubated for 2 h at 37° C., 7% CO2. Medium was carefully removed via suction, and purple formazan crystals were resuspended in 100 μL DMSO. Absorbance was read at 570 nm using a Clariostar plate reader. The data was then analysed with GraphPad Prism software. Technical triplicates for each condition were used, along with biological duplicates.

K. pneumoniae JS-123 = assay type: cell-based, Klebsiella pneumoniae; settings: JS-123
Summary of the method: as §1

P. aeruginosa M-120 = assay type: cell-based, Pseudomonas aeruginosa; settings: M-120
Summary of the method: as §1

## CC[C@H](C)[C@@H]1NC(=O)[C@@H](NC(=O)[C@H](Cc2c[nH]c3ccccc23)NC(=O)[C@@H](CCCN)NC(=O)CNC(=O)[C@H](CCCN)NC(=O)[C@@H](CCCN)NC(=O)[C@@H](Cc2c[nH]c3ccccc23)NC(=O)[C@@H](Cc2ccc(O)cc2)NC(=O)[C@@H](CO)NC(=O)CCCCCC(C)C)CNC(=O)CNC(=O)CNC(=O)[C@H](CC(N)=O)NC1=O [Laterocidamide, laterocidamide] ({Octanoyl(7-Me)}-[dS][dY][dW][dOrn][Orn]G[dOrn]W[Dap]INGG; lactam 9-C)
[1]
  MIC values against E. coli ATCC 25922: 1 µg/mL (≈ 0.629 µM)
E. coli ATCC 25922; 40 mg/kg SC q8h, neutropenic mice, thigh burden
  reduction in bacterial load relative to the untreated group: ~5 log
E. coli ATCC 25922; 10, 20 and 40 mg/kg SC q8h
  dose response of thigh burden: clear dose response
[2]; listed as Compound 6
  tolerability: good tolerability
[2]; listed as compound 6
  tolerability: well tolerated
A. baumannii MDR
  Minimum inhibitory concentration (MIC): 4 µg/mL (≈ 2.52 µM)
HepG2 cells
  cytotoxicity / cell viability: completely non-toxic
HepG2 cells; listed as compound 6
  cytotoxicity / cell viability: low cytotoxicity
K. pneumoniae JS-123
  Minimum inhibitory concentration (MIC): ≤0.5 µg/mL
P. aeruginosa M-120
  Minimum inhibitory concentration (MIC): 2 to 4 µg/mL

Reference: patent US20240140991A1, “ANTIBIOTIC NATURAL PRODUCT ANALOGUES” (THE QUEEN'S UNIVERSITY OF BELFAST, priority 2021, published 2024)
